Results published in article PMC4605326 (Nucleic Acids Research, 2015).

Test system: BsPif1
Conditions: 50 nM enzyme; 67-mer ss oligonucleotide 25 μg/ml; 25 mM Tris-HCl pH 7.5, 50 mM NaCl, 2 mM MgCl2, 2 mM DTT; 37°C

- Km: 0.2 µM
Structure (SMILES): Nc1ncnc2c1ncn2[C@@H]1O[C@H](COP(=O)(O)OP(=O)(O)OP(=O)(O)O)[C@@H](O)[C@H]1O [ATP]
